How the values were obtained:
Type in all cases: in vivo
[1] = system: Solanum nigrum (SOLNI); test: Post-emergence biological efficacy, glasshouse pot test; conditions: 312 h, Rate 1,000 g/ha, post-emergence spray, evaluated after 13 days (100=total damage to plant; 0=no damage to plant), read-out: Percentage damage caused to weed species, post-emergence, SOLNI
Method in brief: (§1)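 Plants were sown in standard soil and grown 8 days in a glasshouse (24/16° C. day/night, 14 hours light, 65% humidity), then sprayed post-emergence at 1000 or 250 g/ha from acetone/water (50:50) with 0.5% Tween 20. Damage was scored visually after 13 days (0 = none, 100 = total).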

[2] = system: Ipomea hederaceae (IPOHE); test: as above; conditions: Ipomoea hederacea, 312 h; Rate 1,000 g/ha; post-emergence spray; evaluated after 13 days (100=total damage to plant; 0=no damage to plant); read-out: Percentage damage caused to weed species, post-emergence, IPOHE
Method in brief: as §1

[3] = system: Alopecurus myosuroides (ALOMY); test: as above; conditions: 312 h, Rate 1,000 g/ha, post-emergence spray, evaluated after 13 days (100=total damage to plant; 0=no damage to plant), read-out: Percentage damage caused to weed species, post-emergence, ALOMY
Method in brief: as §1

[4] = system: Amaranthus retoflexus (AMARE); test: as above; conditions: Amaranthus retroflexus, 312 h; Rate 1,000 g/ha; post-emergence spray; evaluated after 13 days (100=total damage to plant; 0=no damage to plant); read-out: Percentage damage caused to weed species, post-emergence, AMARE
Method in brief: as §1

[5] = system: Setaria faberi (SETFA); test: as above; conditions: 312 h, Rate 1,000 g/ha, post-emergence spray, evaluated after 13 days (100=total damage to plant; 0=no damage to plant), read-out: Percentage damage caused to weed species, post-emergence, SETFA
Method in brief: as §1

[6] = system: Echinochloa crus-galli (ECHCG); test: as above; conditions: 312 h, Rate 1,000 g/ha, post-emergence spray, evaluated after 13 days (100=total damage to plant; 0=no damage to plant), read-out: Percentage damage caused to weed species, post-emergence, ECHCG
Method in brief: as §1

[7] = system: Solanum nigrum (SOLNI); test: Pre-emergence biological efficacy, glasshouse pot test; conditions: 312 h, pre-emergence, rate 1,000 g/ha, evaluated after 13 days (100=total damage to plant; 0=no damage), read-out: Percentage damage caused to weed species, SOLNI
Method in brief: (§2)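 Test compound, formulated in acetone/water (50:50) containing 0.5% Tween 20 and diluted into an aqueous spray, was applied at 1000 or 250 g/ha to pots sown one day earlier. Injury was rated after 13 days, 100 meaning total damage.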

[8] = system: Ipomea hederaceae (IPOHE); test: as above; conditions: Ipomoea hederacea, 312 h; pre-emergence, rate 1,000 g/ha, evaluated after 13 days (100=total damage to plant; 0=no damage); read-out: Percentage damage caused to weed species, IPOHE
Method in brief: as §2

[9] = system: Alopecurus myosuroides (ALOMY); test: as above; conditions: 312 h, pre-emergence, rate 1,000 g/ha, evaluated after 13 days (100=total damage to plant; 0=no damage), read-out: Percentage damage caused to weed species, ALOMY
Method in brief: as §2

[10] = system: Amaranthus retoflexus (AMARE); test: as above; conditions: Amaranthus retroflexus, 312 h; pre-emergence, rate 1,000 g/ha, evaluated after 13 days (100=total damage to plant; 0=no damage); read-out: Percentage damage caused to weed species, AMARE
Method in brief: as §2

[11] = system: Setaria faberi (SETFA); test: as above; conditions: 312 h, pre-emergence, rate 1,000 g/ha, evaluated after 13 days (100=total damage to plant; 0=no damage), read-out: Percentage damage caused to weed species, SETFA
Method in brief: as §2

[12] = system: Echinochloa crus-galli (ECHCG); test: as above; conditions: 312 h, pre-emergence, rate 1,000 g/ha, evaluated after 13 days (100=total damage to plant; 0=no damage), read-out: Percentage damage caused to weed species, ECHCG
Method in brief: as §2

| Structure (SMILES) | pest or weed control at 1000 g/ha [1] [%] | pest or weed control at 1000 g/ha [2] [%] | pest or weed control at 1000 g/ha [3] [%] | pest or weed control at 1000 g/ha [4] [%] | pest or weed control at 1000 g/ha [5] [%] | pest or weed control at 1000 g/ha [6] [%] | pest or weed control at 1000 g/ha [7] [%] | pest or weed control at 1000 g/ha [8] [%] | pest or weed control at 1000 g/ha [9] [%] | pest or weed control at 1000 g/ha [10] [%] | pest or weed control at 1000 g/ha [11] [%] | pest or weed control at 1000 g/ha [12] [%] |
| --- | --- | --- | --- | --- | --- | --- | --- | --- | --- | --- | --- | --- |
| COC(=O)c1nc(C2CC2)nc(N(C)Cc2ccccc2[N+](=O)[O-])c1Cl [Compound 5-90, 5-Chloro-2-cyclopropyl-6-methoxycarbonyl-4-[N-methyl-N-(2-nitrophenylmethyl)-amino]pyrimidine] | 90 | 100 | 50 | 100 | 90 | 70 | 90 | 90 | 20 | 100 | 30 | 30 |
| COC(=O)c1nc(C2CC2)nc(N(C)Cc2cccc([N+](=O)[O-])c2)c1Cl [Compound 5-91, 5-Chloro-2-cyclopropyl-6-methoxycarbonyl-4-[N-methyl-N-(3-nitrophenylmethyl)-amino]pyrimidine] | 80 | 80 | 20 | 100 | 40 | 30 | 60 | 30 | 10 | 70 | 10 | 0 |
| COC(=O)c1nc(C2CC2)nc(N(C)Cc2ccc([N+](=O)[O-])cc2)c1Cl [Compound 5-92, 5-Chloro-2-cyclopropyl-6-methoxycarbonyl-4-[N-methyl-N-(4-nitrophenylmethyl)-amino]-pyrimidine] | 80 | 100 | 50 | 100 | 60 | 40 | 60 | 70 | 20 | 90 | 10 | 10 |
| COC(=O)c1nc(C2CC2)nc(N(C)Cc2c(Cl)cccc2Cl)c1Cl [Compound 5-104, 5-Chloro-2-cyclopropyl-4-[N-(2,6-dichlorophenyl-methyl)-N-methyl-amino]-6-methoxy-carbonylpyrimidine] | 60 | 70 | 0 | 60 | 20 | 0 | 10 | 40 | 0 | 30 | 0 | 0 |
| COC(=O)c1nc(C2CC2)nc(N(C)Cc2ccc(Cl)c(Cl)c2)c1Cl [Compound 5-105, 5-Chloro-2-cyclopropyl-4-[N-(3,4-dichlorophenyl-methyl)-N-methyl-amino]-6-methoxy-carbonylpyrimidine] | 80 | 80 | 30 | 100 | 60 | 40 | 60 | 60 | 10 | 80 | 30 | 10 |
| COC(=O)c1nc(C2CC2)nc(N(C)Cc2cc(OC)cc(OC)c2)c1Cl [Compound 5-113, 5-Chloro-2-cyclopropyl-4-[N-(3,5-dimethoxy-phenylmethyl)-N-methyl-amino]-6-methoxycarbonyl-pyrimidine] | 70 | 70 | 10 | 80 | 30 | 10 | 10 | 60 | 0 | 70 | 0 | 0 |
| CCOc1ccc(CN(C)c2nc(C3CC3)nc(C(=O)OC)c2Cl)cc1OCC [Compound 5-114, 5-Chloro-2-cyclopropyl-4-[N-(3,4-diethoxy-phenylmethyl)-N-methyl-amino]-6-methoxycarbonyl-pyrimidine] | 80 | 70 | 10 | 100 | 40 | 20 | 20 | 40 | 0 | 70 | 20 | 0 |
| COC(=O)c1nc(C2CC2)nc(N(C)Cc2ccco2)c1Cl [Compound 5-125, 5-Chloro-2-cyclopropyl-4-(N-furan-2-ylmethyl-N-methyl-amino)-6-methoxycarbonyl-pyrimidine] | 90 | 100 | 50 | 100 | 80 | 60 | 90 | 100 | 40 | 100 | 80 | 70 |
| COC(=O)c1nc(C2CC2)nc(N(C)Cc2ccc(C)o2)c1Cl [Compound 5-135, 5-Chloro-2-cyclopropyl-6-methoxycarbonyl-4-[N-methyl-N-(5-methylfuran-2-ylmethyl)-amino]-pyrimidine] | 90 | 100 | 30 | 100 | 80 | 40 | 90 | 100 | 30 | 100 | 10 | 0 |
| COC(=O)c1nc(C2CC2)nc(N(C)Cc2nonc2C)c1Cl [Compound 5-149, 5-Chloro-2-cyclopropyl-6-methoxycarbonyl-4-[N-methyl-N-(4-methyl-1,2,5-oxadiazol-3-ylmethyl)-amino]-pyrimidine] | 90 | 90 | 40 | 100 | 80 | 40 | 40 | 80 | 30 | 80 | 10 | 20 |

— patent US20110086759A1, “CHEMICAL COMPOUNDS” (SYNGENTA CROP PROTECTION, INC., priority 2007, published 2011)
